Source: PubChem BioAssay AID1259407 (Chemical Carcinogenesis Research Information System (CCRIS), 2018)
Activity calls are given as the source filed them. No rule for the calls is given here.

System: CCRIS mutagenicity, Ames/micronucleus/aberration tests
Experiment: CCRIS mutagenicity studies
Conditions: Test System: AMES SALMONELLA TYPHIMURIUM, Method: PREINCUBATION

Measured: mutagenic call

O=[N+]([O-])c1ccccc1Nc1ccccc1
inactive: Strain/Indicator: TA97, Metabolic Activation: HAMSTER, LIVER, S-9, AROCLOR 1254 (5, 10 OR 30%) inactive; negative | Strain/Indicator: TA97, Metabolic Activation: NONE inactive; negative | Strain/Indicator: TA97, Metabolic Activation: RAT, LIVER, S-9, AROCLOR 1254 (10%) inactive; negative | Strain/Indicator: TA97, Metabolic Activation: RAT, LIVER, S-9, AROCLOR 1254 (30%) inactive; negative | Strain/Indicator: TA98, Metabolic Activation: HAMSTER, LIVER, S-9, AROCLOR 1254 (10%) inactive; negative | Strain/Indicator: TA98, Metabolic Activation: HAMSTER, LIVER, S-9, AROCLOR 1254 (30%) inactive; negative | Strain/Indicator: TA98, Metabolic Activation: NONE inactive; negative | Strain/Indicator: TA98, Metabolic Activation: RAT, LIVER, S-9, AROCLOR 1254 (10%) inactive; negative | Strain/Indicator: TA98, Metabolic Activation: RAT, LIVER, S-9, AROCLOR 1254 (30%) inactive; negative | Strain/Indicator: TA100, Metabolic Activation: HAMSTER, LIVER, S-9, AROCLOR 1254 (10%) inactive; negative | Strain/Indicator: TA100, Metabolic Activation: HAMSTER, LIVER, S-9, AROCLOR 1254 (30%) inactive; negative | Strain/Indicator: TA100, Metabolic Activation: NONE inactive; negative | Strain/Indicator: TA100, Metabolic Activation: RAT, LIVER, S-9, AROCLOR 1254 (10%) inactive; negative | Strain/Indicator: TA100, Metabolic Activation: RAT, LIVER, S-9, AROCLOR 1254 (30%) inactive; negative | Strain/Indicator: TA1535, Metabolic Activation: HAMSTER, LIVER, S-9, AROCLOR 1254 (10%) inactive; negative | Strain/Indicator: TA1535, Metabolic Activation: HAMSTER, LIVER, S-9, AROCLOR 1254 (30%) inactive; negative | Strain/Indicator: TA1535, Metabolic Activation: NONE inactive; negative | Strain/Indicator: TA1535, Metabolic Activation: RAT, LIVER, S-9, AROCLOR 1254 (10%) inactive; negative | Strain/Indicator: TA1535, Metabolic Activation: RAT, LIVER, S-9, AROCLOR 1254 (30%) inactive; negative
